Results reported in ChEMBL document CHEMBL4265897, “Discovery of benzothiazole amides as potent antimycobacterial agents” (Bioorg Med Chem Lett, 2018).
≈ marks a conversion by molar mass, not a printed value.

How the values were obtained:
[1] = system: Mycobacterium tuberculosis; experiment: Antimycobacterial activity against Mycobacterium tuberculosis H37Rv MC2 6206 by CLSI method; assay type: functional
[2] = system: Mycobacteroides abscessus; experiment: Antimycobacterial activity against Mycobacterium abscessus 21 by CLSI method; assay type: functional
[3] = system: Mycolicibacterium peregrinum; experiment: Antimycobacterial activity against Mycobacterium peregrinum ATCC 700686 by CLSI method; assay type: functional
[4] = system: Mycolicibacterium fortuitum; experiment: Antimycobacterial activity against Mycobacterium fortuitum 41 by CLSI method; assay type: functional
Mycobacterium avium = experiment: Antimycobacterial activity against Mycobacterium avium 101 by CLSI method; assay type: functional
Mycobacteroides chelonae = experiment: Antimycobacterial activity against Mycobacterium chelonae 93 by CLSI method; assay type: functional
[5] = system: Mycobacteroides abscessus; experiment: Antimycobacterial activity against Mycobacterium massiliense 119 by CLSI method; assay type: functional, Mycobacterium abscessus subsp. massiliense
[6] = system: Mycobacteroides abscessus; experiment: Antimycobacterial activity against Mycobacterium abscessus 1 by CLSI method; assay type: functional
[7] = system: Mycobacterium intracellulare; experiment: Antimycobacterial activity against Mycobacterium intracellulare 1956 by CLSI method; assay type: functional
[8] = system: Mycobacteroides abscessus; experiment: Antimycobacterial activity against Mycobacterium abscessus 79 by CLSI method; assay type: functional
[9] = system: Mycobacteroides abscessus; experiment: Antimycobacterial activity against Mycobacterium abscessus 103 by CLSI method; assay type: functional
[10] = system: Mycobacteroides abscessus; experiment: Antimycobacterial activity against Mycobacterium abscessus ATCC 19977 by CLSI method; assay type: functional

Row | Structure (SMILES) | MIC [1] | MIC [2] | MIC [3] | MIC [4] | MIC (Mycobacterium avium) | MIC (Mycobacteroides chelonae) | MIC [5] | MIC [6] | MIC [7] | MIC [8] | MIC [9] | MIC [10]
1 | CC1CC(C(=O)Nc2nc3c(F)cccc3s2)CC(C)(C)C1 (stereo not drawn) | 4 µg/mL (≈ 12.5 µM) | 1 µg/mL (≈ 3.12 µM) | 2 µg/mL (≈ 6.24 µM) | 0.5 µg/mL (≈ 1.56 µM) | 8 µg/mL (≈ 25 µM) | 2 µg/mL (≈ 6.24 µM) | 1 µg/mL (≈ 3.12 µM) | 2 µg/mL (≈ 6.24 µM) | 8 µg/mL (≈ 25 µM) | 2 µg/mL (≈ 6.24 µM) |  | 
2 | CC12CCCC(C(=O)Nc3nc4c(F)cc(F)cc4s3)(CCC1)C2 |  | 0.12 µg/mL (≈ 0.342 µM) | 0.06 µg/mL (≈ 0.171 µM) | 0.25 µg/mL (≈ 0.713 µM) | 4 µg/mL (≈ 11.4 µM) | 0.12 µg/mL (≈ 0.342 µM) | 0.12 µg/mL (≈ 0.342 µM) |  | 4 µg/mL (≈ 11.4 µM) | 0.12 µg/mL (≈ 0.342 µM) | 0.25 µg/mL (≈ 0.713 µM) | 
3 | CC12CCCC(C(=O)Nc3nc4c(F)c(F)c(F)cc4s3)(CCC1)C2 | ≤ 0.12 µg/mL | 0.12 µg/mL (≈ 0.326 µM) | 0.06 µg/mL (≈ 0.163 µM) | 0.5 µg/mL (≈ 1.36 µM) | > 8 µg/mL | 0.12 µg/mL (≈ 0.326 µM) | 0.12 µg/mL (≈ 0.326 µM) | 0.25 µg/mL (≈ 0.679 µM) | 8 µg/mL (≈ 21.7 µM) | 0.12 µg/mL (≈ 0.326 µM) | 0.12 µg/mL (≈ 0.326 µM) | 
4 | CC1CCC(C(=O)Nc2nc3ccc(C(F)(F)F)cc3s2)CC1 (stereo not drawn) |  |  |  |  | > 64 µg/mL |  |  |  | > 64 µg/mL |  |  | 64 µg/mL (≈ 187 µM)
5 | CC12CCCC(C(=O)Nc3nc4ccc(Br)cc4s3)(CCC1)C2 |  | 0.12 µg/mL (≈ 0.305 µM) | 0.12 µg/mL (≈ 0.305 µM) | 0.5 µg/mL (≈ 1.27 µM) | 8 µg/mL (≈ 20.3 µM) | 0.25 µg/mL (≈ 0.636 µM) | 0.12 µg/mL (≈ 0.305 µM) | 0.25 µg/mL (≈ 0.636 µM) | 4 µg/mL (≈ 10.2 µM) | 0.12 µg/mL (≈ 0.305 µM) | 0.12 µg/mL (≈ 0.305 µM) | 
6 | Cc1cc(C)c2sc(NC(=O)C3CC(C)CC(C)(C)C3)nc2c1 (stereo not drawn) |  | 0.25 µg/mL (≈ 0.756 µM) | 0.25 µg/mL (≈ 0.756 µM) | 0.5 µg/mL (≈ 1.51 µM) | > 64 µg/mL | 0.25 µg/mL (≈ 0.756 µM) | 0.5 µg/mL (≈ 1.51 µM) | 0.5 µg/mL (≈ 1.51 µM) | > 64 µg/mL | 0.25 µg/mL (≈ 0.756 µM) | 0.25 µg/mL (≈ 0.756 µM) | 
7 | O=C(Nc1nc2ccc(C(F)(F)F)cc2s1)C1CCCC2(CC2)C1 (stereo not drawn) |  | 2 µg/mL (≈ 5.64 µM) | 1 µg/mL (≈ 2.82 µM) | > 64 µg/mL | > 64 µg/mL | 1 µg/mL (≈ 2.82 µM) | 2 µg/mL (≈ 5.64 µM) | 8 µg/mL (≈ 22.6 µM) | > 64 µg/mL | 1 µg/mL (≈ 2.82 µM) |  | 4 µg/mL (≈ 11.3 µM)
8 | CC1(C)CCCC(C(=O)Nc2nc3ccc(C(F)(F)F)cc3s2)C1 (stereo not drawn) |  | 64 µg/mL (≈ 180 µM) | 64 µg/mL (≈ 180 µM) | > 64 µg/mL | > 64 µg/mL | 0.25 µg/mL (≈ 0.701 µM) | 0.5 µg/mL (≈ 1.4 µM) | > 64 µg/mL | > 64 µg/mL | 64 µg/mL (≈ 180 µM) |  | 
9 | CC12CCCC(C(=O)Nc3nc4ccc(Cl)cc4s3)(CCC1)C2 | 0.5 µg/mL (≈ 1.43 µM) | 0.12 µg/mL (≈ 0.344 µM) | 0.12 µg/mL (≈ 0.344 µM) | 0.25 µg/mL (≈ 0.717 µM) | 8 µg/mL (≈ 22.9 µM) | 0.25 µg/mL (≈ 0.717 µM) | 0.12 µg/mL (≈ 0.344 µM) | 0.25 µg/mL (≈ 0.717 µM) | 4 µg/mL (≈ 11.5 µM) | 0.12 µg/mL (≈ 0.344 µM) | 0.12 µg/mL (≈ 0.344 µM) | 
